One molecule from ChEMBL document CHEMBL5678818, “Discovery of potent SOS1 inhibitors that block RAS activation via disruption of the RAS-SOS1 interaction” (Proc Natl Acad Sci U S A, 2019) can be followed below.

SMILES strings stand for the structures.

Experiment [1] relates to ALK tyrosine kinase receptor (Homo sapiens), Q9UM73 [C1156Y]. Description: Inhibition of ALK C1156Y mutant (unknown origin) assessed as residual activity at 100 nM by KINOMEscan analysis relative to control.
Experiment [2] addresses Calcium/calmodulin-dependent protein kinase type II subunit alpha (Homo sapiens) (UniProt Q9UQM7). Description: Inhibition of CAMK2A (unknown origin) assessed as residual activity at 100 nM by KINOMEscan analysis relative to control.
In experiment [3] the target is Cyclin-dependent kinase 3 (Homo sapiens) (UniProt Q00526). Description: Inhibition of CDK3 (unknown origin) assessed as residual activity at 100 nM by KINOMEscan analysis relative to control.
For experiment [4], the target named is Mitogen-activated protein kinase 1 (Homo sapiens) (UniProt P28482). Description: Inhibition of ERK2 (unknown origin) assessed as residual activity at 100 nM by KINOMEscan analysis relative to control.
The target of experiment [5] is Fibroblast growth factor receptor 2 (Homo sapiens) (UniProt P21802). Description: Inhibition of FGFR2 (unknown origin) assessed as residual activity at 100 nM by KINOMEscan analysis relative to control.
In experiment [6] the target is Interleukin-1 receptor-associated kinase 1 (Homo sapiens) (UniProt P51617). Description: Inhibition of IRAK1 (unknown origin) assessed as residual activity at 100 nM by KINOMEscan analysis relative to control.
The target of experiment [7] is Tyrosine-protein kinase JAK2 (Homo sapiens) (UniProt O60674). Description: Inhibition of JAK2 JH1 catalytic domain (unknown origin) assessed as residual activity at 100 nM by KINOMEscan analysis relative to control.
The target of experiment [8] is T1, Mitogen-activated protein kinase kinase kinase 3 (Homo sapiens) (UniProt Q99759).
T1 sequence (whole entry): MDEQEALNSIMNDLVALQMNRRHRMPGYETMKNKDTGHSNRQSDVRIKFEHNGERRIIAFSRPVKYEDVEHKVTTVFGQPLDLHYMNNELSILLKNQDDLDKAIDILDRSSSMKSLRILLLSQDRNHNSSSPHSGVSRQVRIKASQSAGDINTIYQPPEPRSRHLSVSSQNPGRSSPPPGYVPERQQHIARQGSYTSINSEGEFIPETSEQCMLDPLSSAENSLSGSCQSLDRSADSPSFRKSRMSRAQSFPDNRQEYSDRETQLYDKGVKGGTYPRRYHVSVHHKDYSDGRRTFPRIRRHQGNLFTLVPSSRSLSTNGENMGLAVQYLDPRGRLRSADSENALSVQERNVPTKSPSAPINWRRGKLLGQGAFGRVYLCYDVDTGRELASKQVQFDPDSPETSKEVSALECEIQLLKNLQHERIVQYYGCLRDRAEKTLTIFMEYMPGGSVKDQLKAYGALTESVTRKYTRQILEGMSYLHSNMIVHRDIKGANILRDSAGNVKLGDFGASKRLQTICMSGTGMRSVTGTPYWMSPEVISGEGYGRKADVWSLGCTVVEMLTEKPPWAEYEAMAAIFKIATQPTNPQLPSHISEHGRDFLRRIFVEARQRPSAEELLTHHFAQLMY
Description: Inhibition of MAP3K3 (unknown origin) assessed as residual activity at 100 nM by KINOMEscan analysis relative to control.

The target in experiment [9] is T2, Serine/threonine-protein kinase Nek11 (Homo sapiens) (UniProt Q8NG66).
T2 sequence (whole entry): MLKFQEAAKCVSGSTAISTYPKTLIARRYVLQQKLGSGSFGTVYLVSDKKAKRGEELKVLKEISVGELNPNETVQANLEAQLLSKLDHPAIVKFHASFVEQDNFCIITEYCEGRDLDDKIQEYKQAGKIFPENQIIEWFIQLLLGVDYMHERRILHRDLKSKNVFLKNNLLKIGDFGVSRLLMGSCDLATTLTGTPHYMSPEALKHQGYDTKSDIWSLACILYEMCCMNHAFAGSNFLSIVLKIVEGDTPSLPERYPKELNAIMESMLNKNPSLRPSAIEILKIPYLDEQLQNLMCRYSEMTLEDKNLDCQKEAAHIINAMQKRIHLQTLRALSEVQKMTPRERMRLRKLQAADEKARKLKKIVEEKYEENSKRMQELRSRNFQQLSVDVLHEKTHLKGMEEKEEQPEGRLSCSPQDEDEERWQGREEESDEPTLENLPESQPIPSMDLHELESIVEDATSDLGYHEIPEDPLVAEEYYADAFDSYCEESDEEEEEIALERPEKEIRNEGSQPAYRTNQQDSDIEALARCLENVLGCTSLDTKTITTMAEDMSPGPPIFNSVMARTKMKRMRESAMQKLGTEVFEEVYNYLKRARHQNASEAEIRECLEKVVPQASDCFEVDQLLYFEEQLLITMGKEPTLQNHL
Description: Inhibition of NEK11 (unknown origin) assessed as residual activity at 100 nM by KINOMEscan analysis relative to control.

The target in experiment [10] is Serine/threonine-protein kinase 32C (Homo sapiens) (UniProt Q86UX6). Description: Inhibition of YANK3 (unknown origin) assessed as residual activity at 100 nM by KINOMEscan analysis relative to control.
Experiment [11] has as its target T3, Tyrosine-protein kinase ZAP-70 (Homo sapiens) (UniProt P43403).
T3 sequence (whole entry): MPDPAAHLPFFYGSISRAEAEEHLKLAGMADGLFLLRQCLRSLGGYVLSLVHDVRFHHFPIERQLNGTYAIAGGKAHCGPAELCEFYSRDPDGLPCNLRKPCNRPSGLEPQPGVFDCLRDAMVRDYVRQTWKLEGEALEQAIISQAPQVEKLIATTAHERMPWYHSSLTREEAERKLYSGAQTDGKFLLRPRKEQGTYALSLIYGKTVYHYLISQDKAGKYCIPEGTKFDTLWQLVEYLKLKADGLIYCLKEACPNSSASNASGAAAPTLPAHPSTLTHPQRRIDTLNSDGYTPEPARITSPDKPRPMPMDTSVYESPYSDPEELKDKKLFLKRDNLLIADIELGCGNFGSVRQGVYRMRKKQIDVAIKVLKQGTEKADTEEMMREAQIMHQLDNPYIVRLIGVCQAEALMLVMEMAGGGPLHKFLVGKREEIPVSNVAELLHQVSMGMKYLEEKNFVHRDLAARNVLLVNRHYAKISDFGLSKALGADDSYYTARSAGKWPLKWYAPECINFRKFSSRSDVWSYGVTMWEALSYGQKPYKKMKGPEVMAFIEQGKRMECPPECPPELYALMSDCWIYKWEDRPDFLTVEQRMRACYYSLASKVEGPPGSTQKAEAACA
Description: Inhibition of ZAP70 (unknown origin) assessed as residual activity at 100 nM by KINOMEscan analysis relative to control.

Sequence of Tyrosine-protein kinase JAK2 (Homo sapiens) (O60674 whole entry, the tested form may be a part): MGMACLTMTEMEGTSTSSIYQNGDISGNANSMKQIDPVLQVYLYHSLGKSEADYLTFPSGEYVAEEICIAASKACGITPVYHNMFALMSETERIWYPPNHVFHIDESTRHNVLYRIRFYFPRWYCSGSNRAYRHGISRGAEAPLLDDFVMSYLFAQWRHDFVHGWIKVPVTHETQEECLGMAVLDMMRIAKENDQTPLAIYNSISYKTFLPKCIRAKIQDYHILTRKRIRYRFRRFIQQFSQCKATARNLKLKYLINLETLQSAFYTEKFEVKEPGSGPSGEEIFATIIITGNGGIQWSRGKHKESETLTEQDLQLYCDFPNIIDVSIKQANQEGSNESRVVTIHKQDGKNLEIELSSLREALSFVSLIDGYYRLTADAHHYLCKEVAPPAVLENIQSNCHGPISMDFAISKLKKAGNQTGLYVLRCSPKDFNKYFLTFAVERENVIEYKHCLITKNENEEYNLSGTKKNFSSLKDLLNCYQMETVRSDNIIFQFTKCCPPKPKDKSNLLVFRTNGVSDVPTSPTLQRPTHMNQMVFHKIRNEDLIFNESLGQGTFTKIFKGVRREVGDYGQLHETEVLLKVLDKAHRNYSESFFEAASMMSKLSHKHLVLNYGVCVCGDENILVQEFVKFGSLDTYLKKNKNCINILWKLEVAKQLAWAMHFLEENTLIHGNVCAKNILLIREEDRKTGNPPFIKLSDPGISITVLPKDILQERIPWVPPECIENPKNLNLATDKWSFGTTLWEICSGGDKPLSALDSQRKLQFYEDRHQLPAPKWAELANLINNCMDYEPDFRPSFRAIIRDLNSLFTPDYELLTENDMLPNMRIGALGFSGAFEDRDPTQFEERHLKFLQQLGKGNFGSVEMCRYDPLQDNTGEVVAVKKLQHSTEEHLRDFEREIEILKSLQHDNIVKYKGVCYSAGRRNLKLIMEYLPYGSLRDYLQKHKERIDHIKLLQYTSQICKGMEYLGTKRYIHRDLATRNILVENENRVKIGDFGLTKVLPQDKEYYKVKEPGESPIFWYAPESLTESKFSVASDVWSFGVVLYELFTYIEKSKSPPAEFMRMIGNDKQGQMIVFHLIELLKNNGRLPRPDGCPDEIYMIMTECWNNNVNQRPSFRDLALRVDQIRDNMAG
Sequence of Fibroblast growth factor receptor 2 (Homo sapiens) (P21802 22-821 limits assumed): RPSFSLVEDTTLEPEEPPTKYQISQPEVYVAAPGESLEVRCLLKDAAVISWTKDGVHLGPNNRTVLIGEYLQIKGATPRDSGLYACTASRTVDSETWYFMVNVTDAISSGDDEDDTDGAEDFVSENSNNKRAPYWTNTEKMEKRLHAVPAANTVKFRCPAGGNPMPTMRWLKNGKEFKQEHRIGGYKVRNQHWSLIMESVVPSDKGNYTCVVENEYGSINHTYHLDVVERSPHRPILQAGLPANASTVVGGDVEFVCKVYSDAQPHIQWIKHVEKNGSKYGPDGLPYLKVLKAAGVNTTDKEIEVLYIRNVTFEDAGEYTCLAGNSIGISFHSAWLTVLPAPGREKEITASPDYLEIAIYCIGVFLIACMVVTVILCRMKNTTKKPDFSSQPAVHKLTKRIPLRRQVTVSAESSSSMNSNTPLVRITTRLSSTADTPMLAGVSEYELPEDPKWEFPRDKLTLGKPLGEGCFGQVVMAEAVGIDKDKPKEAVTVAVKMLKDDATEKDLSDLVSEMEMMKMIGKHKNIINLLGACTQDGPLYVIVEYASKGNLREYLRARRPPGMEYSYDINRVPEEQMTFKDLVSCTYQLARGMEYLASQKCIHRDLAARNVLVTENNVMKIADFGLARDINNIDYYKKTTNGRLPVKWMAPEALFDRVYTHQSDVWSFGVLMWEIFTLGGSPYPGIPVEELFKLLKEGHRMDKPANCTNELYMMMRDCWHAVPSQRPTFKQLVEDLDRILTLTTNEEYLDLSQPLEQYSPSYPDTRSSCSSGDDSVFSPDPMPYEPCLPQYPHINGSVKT
Sequence of Serine/threonine-protein kinase 32C (Homo sapiens) (Q86UX6 whole entry): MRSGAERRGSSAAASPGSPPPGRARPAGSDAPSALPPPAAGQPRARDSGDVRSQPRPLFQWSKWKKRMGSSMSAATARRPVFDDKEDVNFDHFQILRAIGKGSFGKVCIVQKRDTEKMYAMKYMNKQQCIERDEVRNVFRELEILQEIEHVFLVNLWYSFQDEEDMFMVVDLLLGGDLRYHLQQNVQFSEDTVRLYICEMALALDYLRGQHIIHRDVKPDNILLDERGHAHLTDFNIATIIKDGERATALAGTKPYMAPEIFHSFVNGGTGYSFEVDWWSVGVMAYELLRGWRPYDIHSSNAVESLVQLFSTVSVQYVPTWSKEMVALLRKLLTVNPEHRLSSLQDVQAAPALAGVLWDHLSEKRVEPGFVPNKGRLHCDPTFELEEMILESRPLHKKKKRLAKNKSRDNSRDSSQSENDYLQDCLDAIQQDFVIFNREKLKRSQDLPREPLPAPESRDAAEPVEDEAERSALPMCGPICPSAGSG
Sequence of ALK tyrosine kinase receptor (Homo sapiens), Q9UM73 [C1156Y] (Q9UM73 whole entry C1156Y, looked up): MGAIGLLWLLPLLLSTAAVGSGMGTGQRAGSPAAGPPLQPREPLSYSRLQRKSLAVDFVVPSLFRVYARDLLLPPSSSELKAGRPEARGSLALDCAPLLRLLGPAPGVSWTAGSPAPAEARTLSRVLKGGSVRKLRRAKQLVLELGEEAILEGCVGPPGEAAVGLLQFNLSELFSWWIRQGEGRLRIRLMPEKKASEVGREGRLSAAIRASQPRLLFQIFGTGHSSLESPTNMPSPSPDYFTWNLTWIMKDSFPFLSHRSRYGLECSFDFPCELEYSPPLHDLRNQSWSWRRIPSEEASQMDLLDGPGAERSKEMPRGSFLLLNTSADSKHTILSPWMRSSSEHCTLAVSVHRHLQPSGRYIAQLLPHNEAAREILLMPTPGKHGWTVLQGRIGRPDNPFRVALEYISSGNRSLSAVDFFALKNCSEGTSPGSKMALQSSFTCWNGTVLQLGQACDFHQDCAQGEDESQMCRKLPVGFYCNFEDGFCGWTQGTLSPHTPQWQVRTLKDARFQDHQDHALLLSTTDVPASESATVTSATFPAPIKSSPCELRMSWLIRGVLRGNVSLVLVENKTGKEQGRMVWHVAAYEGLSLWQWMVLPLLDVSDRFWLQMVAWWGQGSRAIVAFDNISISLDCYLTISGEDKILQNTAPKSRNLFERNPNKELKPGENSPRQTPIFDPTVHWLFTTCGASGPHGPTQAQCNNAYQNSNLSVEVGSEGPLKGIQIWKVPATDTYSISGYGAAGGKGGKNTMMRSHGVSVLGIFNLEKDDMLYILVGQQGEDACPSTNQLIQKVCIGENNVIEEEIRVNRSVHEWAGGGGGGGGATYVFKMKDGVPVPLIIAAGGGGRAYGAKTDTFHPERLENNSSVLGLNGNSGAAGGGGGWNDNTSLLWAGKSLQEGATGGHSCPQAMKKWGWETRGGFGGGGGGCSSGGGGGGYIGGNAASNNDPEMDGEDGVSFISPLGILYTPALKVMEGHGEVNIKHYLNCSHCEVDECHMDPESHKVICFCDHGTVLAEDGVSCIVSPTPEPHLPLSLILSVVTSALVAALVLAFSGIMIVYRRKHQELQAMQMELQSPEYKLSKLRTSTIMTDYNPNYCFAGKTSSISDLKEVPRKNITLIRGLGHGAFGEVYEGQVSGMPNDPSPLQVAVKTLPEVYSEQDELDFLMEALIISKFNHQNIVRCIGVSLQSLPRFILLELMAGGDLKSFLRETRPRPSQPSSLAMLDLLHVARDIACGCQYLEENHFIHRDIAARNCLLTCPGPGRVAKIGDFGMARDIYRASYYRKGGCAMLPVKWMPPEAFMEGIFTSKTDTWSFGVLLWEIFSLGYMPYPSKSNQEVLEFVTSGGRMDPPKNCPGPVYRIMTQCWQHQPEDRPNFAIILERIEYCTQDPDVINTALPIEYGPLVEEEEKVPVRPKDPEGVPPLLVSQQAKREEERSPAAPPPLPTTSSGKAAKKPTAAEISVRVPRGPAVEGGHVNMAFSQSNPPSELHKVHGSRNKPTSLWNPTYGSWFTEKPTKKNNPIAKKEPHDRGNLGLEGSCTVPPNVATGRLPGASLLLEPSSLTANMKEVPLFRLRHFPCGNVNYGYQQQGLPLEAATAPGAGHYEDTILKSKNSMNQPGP
Sequence of Mitogen-activated protein kinase 1 (Homo sapiens) (P28482 whole entry): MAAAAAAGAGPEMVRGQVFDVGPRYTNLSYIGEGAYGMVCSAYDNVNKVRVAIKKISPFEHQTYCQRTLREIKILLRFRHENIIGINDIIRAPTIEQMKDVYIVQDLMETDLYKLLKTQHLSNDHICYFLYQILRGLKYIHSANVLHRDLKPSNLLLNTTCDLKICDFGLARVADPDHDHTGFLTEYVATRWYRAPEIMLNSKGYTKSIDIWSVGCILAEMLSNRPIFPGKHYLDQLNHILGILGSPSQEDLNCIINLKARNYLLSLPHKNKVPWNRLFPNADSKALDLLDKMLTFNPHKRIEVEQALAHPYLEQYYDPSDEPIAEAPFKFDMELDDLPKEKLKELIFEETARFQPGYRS
Sequence of Calcium/calmodulin-dependent protein kinase type II subunit alpha (Homo sapiens) (Q9UQM7 whole entry): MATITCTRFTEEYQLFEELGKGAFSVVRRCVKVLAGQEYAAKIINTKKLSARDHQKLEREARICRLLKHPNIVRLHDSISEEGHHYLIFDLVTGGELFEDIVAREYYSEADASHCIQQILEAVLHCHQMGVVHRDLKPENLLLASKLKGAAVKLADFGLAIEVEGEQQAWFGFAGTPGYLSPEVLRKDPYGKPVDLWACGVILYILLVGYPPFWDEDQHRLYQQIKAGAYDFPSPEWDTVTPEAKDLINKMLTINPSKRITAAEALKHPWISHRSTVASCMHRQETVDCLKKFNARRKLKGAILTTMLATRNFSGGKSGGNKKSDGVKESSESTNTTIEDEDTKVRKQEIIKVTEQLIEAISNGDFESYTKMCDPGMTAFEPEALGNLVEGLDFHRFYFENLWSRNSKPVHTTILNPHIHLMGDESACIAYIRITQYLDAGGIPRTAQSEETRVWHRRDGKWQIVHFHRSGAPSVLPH

Regarding `COc1cc2ncnc(N[C@H](C)c3cccc4ccccc34)c2cc1OC`, the Activity in [1] was found to be 99%; in experiment [2] it was 96%; in experiment [3], 95%; in [4], 72%; in experiment [5] it was 80%; in [6], 94%. The Activity in experiment [7] was determined as 93%; in experiment [8], 90%; in experiment [9], 79%; in experiment [10], 100%; in experiment [11], 77%.
